Where two headings read alike, the source gives them in different places.
Tests used:
Assay in all cases: biochemical
Parameters in all cases: Reaction Biology 371-kinase panel at Km ATP, per cent enzyme activity relative to DMSO, single dose in duplicate
Conditions in all cases: duplicate measurements, Km ATP
[1] = molecular target: T1, BRK (Homo sapiens, UniProt Q13882)
T1 construct: gene PTK6
Protocol: (§1) To assess kinase selectivity, we screened TP-5801 (300 nM) against a panel of 371 kinases in vitro. […] In addition to TNK1, only 7 other kinases were inhibited by more than 90% (Supplementary Fig. 8 and Supplementary Data 2). […] The resulting % Enzyme activity (relative to DMSO controls) were plotted in GraphPad and IC50 values were determined by sigmoidal dose-response (variable slope) curve fits, with a bottom constraint of 0.

[2] = molecular target: CAMKK2 (Homo sapiens, UniProt Q96RR4)
Protocol: as §1

[3] = molecular target: CDK2/CYCLIN E (Homo sapiens, UniProt P24941)
Protocol: as §1

[4] = molecular target: T2, CK1g2 (Homo sapiens, UniProt P78368)
T2 construct: gene CSNK1G2
Protocol: as §1

[5] = molecular target: CLK2 (Homo sapiens, UniProt P49760)
Protocol: as §1

[6] = molecular target: T3, DYRK4 (Homo sapiens, UniProt Q9NR20)
T3 sequence (Q9NR20 1-520): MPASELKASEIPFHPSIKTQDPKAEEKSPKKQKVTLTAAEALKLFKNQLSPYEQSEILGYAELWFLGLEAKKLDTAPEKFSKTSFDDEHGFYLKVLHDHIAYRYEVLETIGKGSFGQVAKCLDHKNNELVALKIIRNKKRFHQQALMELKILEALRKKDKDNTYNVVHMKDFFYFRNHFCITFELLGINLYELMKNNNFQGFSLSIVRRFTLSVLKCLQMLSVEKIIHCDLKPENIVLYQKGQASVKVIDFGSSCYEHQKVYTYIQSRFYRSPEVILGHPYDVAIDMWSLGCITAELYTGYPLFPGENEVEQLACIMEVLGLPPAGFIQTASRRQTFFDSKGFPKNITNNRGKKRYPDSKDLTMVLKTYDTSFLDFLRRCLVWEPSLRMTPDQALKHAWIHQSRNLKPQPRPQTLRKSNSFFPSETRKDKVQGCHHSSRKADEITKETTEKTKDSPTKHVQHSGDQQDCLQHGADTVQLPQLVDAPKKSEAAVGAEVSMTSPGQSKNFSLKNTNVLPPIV
Protocol: as §1

[7] = molecular target: HCK (Homo sapiens, UniProt P08631)
Protocol: as §1

[8] = molecular target: HPK1/MAP4K1 (Homo sapiens, UniProt Q92918)
Protocol: as §1

[9] = molecular target: MASTL (Homo sapiens, UniProt Q96GX5)
Protocol: as §1

[10] = molecular target: NEK7 (Homo sapiens, UniProt Q8TDX7)
Protocol: as §1

[11] = molecular target: T4, P38g (Homo sapiens, UniProt P53778)
T4 construct: gene MAPK12
Protocol: as §1

[12] = molecular target: RON/MST1R (Homo sapiens, UniProt Q04912)
Protocol: as §1

[13] = molecular target: SGK3/SGKL (Homo sapiens, UniProt Q96BR1)
Protocol: as §1

[14] = molecular target: SIK3 (Homo sapiens, UniProt Q9Y2K2)
Protocol: as §1

[15] = molecular target: TEC (Homo sapiens, UniProt P42680)
Protocol: as §1

[16] = molecular target: TYK2 (Homo sapiens, UniProt P29597)
Protocol: as §1

[17] = read-out: % Enzyme Activity (relative to DMSO controls) / TP-0005801 (0.3µM) / Data 1
[18] = read-out: % Enzyme Activity (relative to DMSO controls) / TP-0005801 (0.3µM) / Data 2

Chain of TEC (P42680 whole entry): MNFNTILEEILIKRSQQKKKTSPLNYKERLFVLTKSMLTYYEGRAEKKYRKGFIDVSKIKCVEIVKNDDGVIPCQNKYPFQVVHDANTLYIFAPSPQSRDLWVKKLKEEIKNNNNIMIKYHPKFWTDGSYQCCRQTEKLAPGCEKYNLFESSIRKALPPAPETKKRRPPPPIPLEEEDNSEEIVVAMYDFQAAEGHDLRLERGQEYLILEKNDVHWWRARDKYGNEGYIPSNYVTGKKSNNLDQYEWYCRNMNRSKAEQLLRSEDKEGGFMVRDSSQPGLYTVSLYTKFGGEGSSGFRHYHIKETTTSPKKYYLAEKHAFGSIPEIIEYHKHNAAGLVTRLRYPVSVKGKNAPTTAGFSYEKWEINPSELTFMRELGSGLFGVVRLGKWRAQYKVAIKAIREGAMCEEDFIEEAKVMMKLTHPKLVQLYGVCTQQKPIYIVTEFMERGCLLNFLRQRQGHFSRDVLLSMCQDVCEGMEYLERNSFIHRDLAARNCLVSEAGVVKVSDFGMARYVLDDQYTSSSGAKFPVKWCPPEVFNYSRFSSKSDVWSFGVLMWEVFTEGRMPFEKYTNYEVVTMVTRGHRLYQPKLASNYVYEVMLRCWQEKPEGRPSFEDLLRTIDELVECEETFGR
T1 sequence (Q13882 whole entry): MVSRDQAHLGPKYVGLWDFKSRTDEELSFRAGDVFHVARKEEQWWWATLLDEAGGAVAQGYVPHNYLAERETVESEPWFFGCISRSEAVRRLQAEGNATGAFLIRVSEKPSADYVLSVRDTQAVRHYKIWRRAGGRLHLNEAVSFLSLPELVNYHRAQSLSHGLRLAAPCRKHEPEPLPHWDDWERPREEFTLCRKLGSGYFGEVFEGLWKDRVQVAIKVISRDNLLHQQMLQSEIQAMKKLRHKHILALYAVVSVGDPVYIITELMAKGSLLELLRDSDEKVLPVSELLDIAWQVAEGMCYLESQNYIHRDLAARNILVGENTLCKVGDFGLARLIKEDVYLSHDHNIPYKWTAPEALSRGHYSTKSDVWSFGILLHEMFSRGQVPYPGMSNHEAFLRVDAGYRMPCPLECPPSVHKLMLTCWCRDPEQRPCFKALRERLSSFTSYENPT
T4 sequence (P53778 whole entry): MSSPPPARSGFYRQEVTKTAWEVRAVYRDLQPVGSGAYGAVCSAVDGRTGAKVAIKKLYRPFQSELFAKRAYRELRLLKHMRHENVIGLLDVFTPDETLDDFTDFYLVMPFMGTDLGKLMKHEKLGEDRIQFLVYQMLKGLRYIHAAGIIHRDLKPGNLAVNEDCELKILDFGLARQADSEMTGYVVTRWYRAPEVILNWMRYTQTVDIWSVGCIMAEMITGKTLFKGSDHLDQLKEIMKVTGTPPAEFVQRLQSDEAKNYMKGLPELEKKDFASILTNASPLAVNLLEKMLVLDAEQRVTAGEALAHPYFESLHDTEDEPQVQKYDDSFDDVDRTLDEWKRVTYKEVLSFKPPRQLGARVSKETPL
Chain of CAMKK2 (Q96RR4 whole entry): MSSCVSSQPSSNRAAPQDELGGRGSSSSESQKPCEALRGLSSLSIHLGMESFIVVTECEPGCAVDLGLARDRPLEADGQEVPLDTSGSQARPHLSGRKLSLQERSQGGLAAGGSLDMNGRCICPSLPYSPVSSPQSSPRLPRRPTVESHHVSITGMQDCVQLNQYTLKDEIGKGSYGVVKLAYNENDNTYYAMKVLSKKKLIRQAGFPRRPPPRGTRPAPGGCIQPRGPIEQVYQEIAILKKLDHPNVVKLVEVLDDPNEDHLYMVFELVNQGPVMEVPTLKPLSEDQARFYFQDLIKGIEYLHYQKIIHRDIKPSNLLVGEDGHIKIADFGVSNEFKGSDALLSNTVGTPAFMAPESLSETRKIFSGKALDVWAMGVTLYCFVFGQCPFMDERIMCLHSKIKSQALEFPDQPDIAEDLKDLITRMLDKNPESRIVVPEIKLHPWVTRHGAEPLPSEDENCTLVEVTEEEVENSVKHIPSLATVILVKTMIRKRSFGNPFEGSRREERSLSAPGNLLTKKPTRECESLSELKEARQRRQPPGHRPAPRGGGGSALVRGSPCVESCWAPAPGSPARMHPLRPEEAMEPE
Chain of NEK7 (Q8TDX7 whole entry): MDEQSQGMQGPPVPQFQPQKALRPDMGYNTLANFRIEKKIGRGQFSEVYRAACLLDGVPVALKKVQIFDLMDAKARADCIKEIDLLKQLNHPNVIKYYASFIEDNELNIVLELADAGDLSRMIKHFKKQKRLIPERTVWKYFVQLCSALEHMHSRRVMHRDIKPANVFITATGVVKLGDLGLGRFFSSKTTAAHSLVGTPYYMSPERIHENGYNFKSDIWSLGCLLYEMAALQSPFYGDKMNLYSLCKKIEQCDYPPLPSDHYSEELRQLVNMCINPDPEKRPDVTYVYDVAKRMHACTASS
Chain of HCK (P08631 whole entry): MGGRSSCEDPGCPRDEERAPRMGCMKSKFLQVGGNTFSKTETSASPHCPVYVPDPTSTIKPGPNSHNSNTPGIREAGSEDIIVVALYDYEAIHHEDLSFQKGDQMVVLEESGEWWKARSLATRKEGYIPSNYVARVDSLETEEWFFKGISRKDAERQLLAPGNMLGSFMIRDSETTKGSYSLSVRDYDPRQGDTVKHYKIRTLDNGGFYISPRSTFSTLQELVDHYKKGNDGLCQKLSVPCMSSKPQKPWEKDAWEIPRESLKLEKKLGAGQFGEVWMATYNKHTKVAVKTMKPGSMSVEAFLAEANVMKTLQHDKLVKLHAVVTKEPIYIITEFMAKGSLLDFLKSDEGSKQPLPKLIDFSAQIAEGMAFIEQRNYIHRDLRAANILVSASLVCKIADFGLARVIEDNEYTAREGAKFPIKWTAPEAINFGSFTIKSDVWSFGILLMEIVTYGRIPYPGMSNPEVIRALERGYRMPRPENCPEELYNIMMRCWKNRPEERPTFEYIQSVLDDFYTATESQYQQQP
Chain of SGK3/SGKL (Q96BR1 whole entry): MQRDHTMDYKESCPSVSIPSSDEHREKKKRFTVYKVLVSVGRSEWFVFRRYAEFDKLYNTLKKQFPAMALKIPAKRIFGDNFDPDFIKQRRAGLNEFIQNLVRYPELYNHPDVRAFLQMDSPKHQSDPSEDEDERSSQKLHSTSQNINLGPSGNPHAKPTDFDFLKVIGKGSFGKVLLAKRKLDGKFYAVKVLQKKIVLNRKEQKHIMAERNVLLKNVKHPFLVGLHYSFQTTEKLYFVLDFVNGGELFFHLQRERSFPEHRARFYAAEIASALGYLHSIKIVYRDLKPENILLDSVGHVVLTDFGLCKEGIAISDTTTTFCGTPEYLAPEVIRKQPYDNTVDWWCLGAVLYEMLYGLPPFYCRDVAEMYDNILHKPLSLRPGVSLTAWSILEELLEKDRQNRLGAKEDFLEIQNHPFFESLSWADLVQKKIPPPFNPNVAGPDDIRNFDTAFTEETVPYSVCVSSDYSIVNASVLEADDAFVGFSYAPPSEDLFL
T2 sequence (P78368 whole entry): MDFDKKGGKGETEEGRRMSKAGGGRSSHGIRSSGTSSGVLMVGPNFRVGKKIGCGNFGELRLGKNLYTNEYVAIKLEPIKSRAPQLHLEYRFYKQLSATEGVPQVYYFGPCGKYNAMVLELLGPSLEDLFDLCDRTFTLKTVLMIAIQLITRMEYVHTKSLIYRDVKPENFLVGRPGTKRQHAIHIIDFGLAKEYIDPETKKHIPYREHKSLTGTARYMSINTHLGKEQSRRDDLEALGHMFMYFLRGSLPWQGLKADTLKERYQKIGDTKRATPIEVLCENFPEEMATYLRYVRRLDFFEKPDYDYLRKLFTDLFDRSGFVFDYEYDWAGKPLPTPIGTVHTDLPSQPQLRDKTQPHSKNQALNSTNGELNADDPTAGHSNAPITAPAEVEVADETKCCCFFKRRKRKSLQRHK
Chain of HPK1/MAP4K1 (Q92918 whole entry): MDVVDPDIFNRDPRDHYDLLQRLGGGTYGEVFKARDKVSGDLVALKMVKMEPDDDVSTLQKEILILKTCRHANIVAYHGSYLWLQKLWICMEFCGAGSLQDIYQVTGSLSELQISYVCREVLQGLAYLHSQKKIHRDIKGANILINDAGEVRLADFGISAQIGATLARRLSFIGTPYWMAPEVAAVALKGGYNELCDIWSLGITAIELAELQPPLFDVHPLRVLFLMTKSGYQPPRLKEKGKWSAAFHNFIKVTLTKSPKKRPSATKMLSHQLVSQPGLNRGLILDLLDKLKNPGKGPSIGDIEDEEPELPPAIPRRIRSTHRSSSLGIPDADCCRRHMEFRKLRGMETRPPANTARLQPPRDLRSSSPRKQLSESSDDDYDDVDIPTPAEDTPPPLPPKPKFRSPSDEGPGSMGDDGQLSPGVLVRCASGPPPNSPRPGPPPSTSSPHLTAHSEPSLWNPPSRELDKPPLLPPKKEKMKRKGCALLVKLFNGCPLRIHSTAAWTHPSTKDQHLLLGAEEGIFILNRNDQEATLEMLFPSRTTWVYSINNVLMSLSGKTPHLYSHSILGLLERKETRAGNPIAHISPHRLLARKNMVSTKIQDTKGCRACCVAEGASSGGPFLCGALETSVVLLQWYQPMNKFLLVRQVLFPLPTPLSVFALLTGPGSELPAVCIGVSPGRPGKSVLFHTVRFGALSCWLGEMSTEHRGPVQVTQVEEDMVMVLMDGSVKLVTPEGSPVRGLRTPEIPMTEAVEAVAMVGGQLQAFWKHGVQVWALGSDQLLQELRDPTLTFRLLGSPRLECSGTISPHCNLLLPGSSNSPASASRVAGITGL

- remaining activity at 0.3 µM [1, 17]: 78%
- remaining activity at 0.3 µM [1, 18]: 76.5%
- remaining activity at 0.3 µM [2, 17]: 31.9%
- remaining activity at 0.3 µM [2, 18]: 30.2%
- remaining activity at 0.3 µM [3, 17]: 91.7%
- remaining activity at 0.3 µM [3, 18]: 91.2%
- remaining activity at 0.3 µM [4, 17]: 94.5%
- remaining activity at 0.3 µM [4, 18]: 92.9%
- remaining activity at 0.3 µM [5, 17]: 69.8%
- remaining activity at 0.3 µM [5, 18]: 68.6%
- remaining activity at 0.3 µM [6, 17]: 104%
- remaining activity at 0.3 µM [6, 18]: 99.2%
- remaining activity at 0.3 µM [7, 17]: 105%
- remaining activity at 0.3 µM [7, 18]: 102%
- remaining activity at 0.3 µM [8, 17]: 25.8%
- remaining activity at 0.3 µM [8, 18]: 25.6%
- remaining activity at 0.3 µM [9, 17]: 97%
- remaining activity at 0.3 µM [9, 18]: 96.1%
- remaining activity at 0.3 µM [10, 17]: 90.2%
- remaining activity at 0.3 µM [10, 18]: 89.5%
- remaining activity at 0.3 µM [11, 17]: 104%
- remaining activity at 0.3 µM [11, 18]: 102%
- remaining activity at 0.3 µM [12, 17]: 94%
- remaining activity at 0.3 µM [12, 18]: 92.4%
- remaining activity at 0.3 µM [13, 17]: 108%
- remaining activity at 0.3 µM [13, 18]: 105%
- remaining activity at 0.3 µM [14, 17]: 96.1%
- remaining activity at 0.3 µM [14, 18]: 93.9%
- remaining activity at 0.3 µM [15, 17]: 93.4%
- remaining activity at 0.3 µM [15, 18]: 92.2%
- remaining activity at 0.3 µM [16, 17]: 100%
- remaining activity at 0.3 µM [16, 18]: 96.7%
SMILES: COc1cc(N2CCN(C)CC2)c(C)cc1Nc1ncc(Br)c(Nc2cccnc2N(C)C)n1 [TP-5801]
